Measured values as given in patent US20230118459A1, “ANTIVIRAL TREATMENT” (priority 2020, published 2023).

Assays:
HCV = conditions: Anggakusuma et al., 2013, read-out: EC50 inhibiting binding and fusion; cited from earlier work
[1] = test system: virus (not named) in Huh7 cells; experiment: Cytopathic effect assay; conditions: for inhibition at 14 µM: read-out: average inhibition (%) at 14 μM; for inhibition at 29 µM: read-out: average inhibition (%) at 29 μM; for average inhibition (%) at 14 μM / average inhibition (%) at 29 μM: virus added directly after compound
[2] = test system: enveloped viruses, including HIV, IAV, VSV, and SARS; conditions: VSV (Harada, 2005), SARS (Cinatl et al., 2003); cited from earlier work
[3] = Huh7 cells, cytopathic effect, 7 days at 33° C.

Compound	EC30 [1, 3] [µM]	average inhibition (%) at 14 μM ([1]; Huh7 cells, 7 days at 33° C.) [%]	average inhibition (%) at 29 μM ([1]; Huh7 cells, 7 days at 33° C.) [%]	further results
COc1cc(/C=C/C(=O)CC(=O)/C=C/c2ccc(O)c(OC)c2)ccc1O [Curcumin]	–	–	–	EC50 (HCV): 8.46 µM
CCCCCCCCCCCCCC(=O)NCCC[N+](C)(C)Cc1ccccc1 [ES001071, myristamido-propyl-dimethyl-benzyl-ammonium chloride, reference compound]	22.7	–	–	inhibition at 14 µM ([1]; Huh-7, 168 h): 8.7%; inhibition at 29 µM ([1]; Huh-7, 168 h): 35.9%
CCCCCCCCCCCCCC(=O)NCCC[N+](C)(C)Cc1ccccc1.C[C@H](O)C(=O)[O-] [ES001391, Myramistin (L)-lactate]	45.1	0	18.5	–
CCCCCCCC(=O)[O-].CCCCCCCCCCCCCC(=O)NCCC[N+](C)(C)Cc1ccccc1 [ES001639, Myramistin capiylate]	22.3	17.9	42.1	–
CCCCCCCCCCCCCC(=O)NCCC[N+](C)(C)Cc1ccccc1.O=C([O-])CO [ES001652, Myramistin glycolate]	23.8	17.0	36.2	–
CCCCCCCCCCCCCC(=O)NCCC[N+](C)(C)Cc1ccc(C)cc1 [ES001706, N-(3-(dimethyl 4-methylbenzylammonio)propyl)myristamide chloride]	–	–	–	inhibition at 14 µM ([1]; Huh-7, 168 h): 23.8%; inhibition at 29 µM ([1]; Huh-7, 168 h): 34.1%
CCCCCCCCCCCCCC(=O)NCCC[N+](C)(C)Cc1ccc(C#N)cc1 [ES001713, N-(3-(dimethyl 4-cyanobenzylammonio)propyl)myristamide chloride]	11.8	–	–	EC50 ([1]; Huh-7, 168 h): 16.7 µM; inhibition at 14 µM ([1]; Huh-7, 168 h): 38.3%; inhibition at 29 µM ([1]; Huh-7, 168 h): 79.4%
CCCCCCCCCCCCCC(=O)NCCC[N+](C)(C)CCc1ccccc1.[Cl-] [ES001726, N-(3-(dimethylethylenephenylammonio)propyl)myristamide chloride]	15.7	26.4	14.9	–
CC1(C)[C@@H](O[C@H]2O[C@H](C(=O)O)[C@@H](O)[C@H](O)[C@H]2O[C@@H]2O[C@H](C(=O)O)[C@@H](O)[C@H](O)[C@H]2O)CC[C@]2(C)[C@H]3C(=O)C=C4[C@@H]5C[C@@](C)(C(=O)O)CC[C@]5(C)CC[C@@]4(C)[C@]3(C)CC[C@@H]12 [Glycyrrhizin]	–	–	–	activity against enveloped viruses [2]: weakly active
Myramistin citrate [ES001637]	21.1	19.5	36.8	–
N-(3-(dimethyl 3-methylenethiophenyl ammonio)propyl)myristamide chloride [ES001716]	21.1	13.3	51.8	EC50 [1, 3]: 28.1 µM
N-(3-(dimethyl 4-methylenenaphthyl ammonio)propyl)myristamide chloride [ES001715]	10.0	45.4	0	–
